# PMC10951314 (Nature Communications, 2024)
# pKd: −log10 of the molar value.
# Columns and labels:
# [1] = molecular target: T1, MavL42-435-UbVME (Legionella pneumophila, UniProt Q5ZSJ1)
# T1 construct: gene lpg2526
# [2] = molecular target: T2, MavL42-435 (Legionella pneumophila, UniProt Q5ZSJ1)
# T2 construct: gene lpg2526
# T2 sequence (Q5ZSJ1 42-435 limits assumed): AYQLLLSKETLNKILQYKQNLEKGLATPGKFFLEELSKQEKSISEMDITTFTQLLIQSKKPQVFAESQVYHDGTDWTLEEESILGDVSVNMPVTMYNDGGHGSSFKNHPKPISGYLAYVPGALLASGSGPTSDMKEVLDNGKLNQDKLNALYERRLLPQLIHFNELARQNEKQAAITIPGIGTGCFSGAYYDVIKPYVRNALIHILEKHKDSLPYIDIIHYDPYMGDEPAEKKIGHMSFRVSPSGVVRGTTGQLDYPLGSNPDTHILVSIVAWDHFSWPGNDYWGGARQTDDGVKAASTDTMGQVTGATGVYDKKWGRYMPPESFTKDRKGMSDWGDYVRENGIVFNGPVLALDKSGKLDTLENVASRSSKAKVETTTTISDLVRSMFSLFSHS
smiles,measurement,setting,value
Nc1ncnc2c1ncn2[C@@H]1O[C@H](COP(=O)(O)OP(=O)(O)OC[C@H]2OC(O)[C@H](O)[C@@H]2O)[C@@H](O)[C@H]1O (some centres unmarked) [ADPR],"X-ray crystal structure, 2.15 Å (crystal soak)",[1],we observed electron density for ADPR in one of the MavL-UbVME subunits
same,pKd,[2],4.59
